The values that follow are results of earlier work, collected in patent publication US5846995A, “Substituted 1, 2, 3, 4-tetrahydro-2-dibenzofuranamines and 2-amino-cyclohepta (6, 7-B) Benzofurans” (priority 1997, dated 1998).

For this data set the following is noted: background.

For the compound `CNS(=O)(=O)Cc1ccc2[nH]cc(CCN(C)C)c2c1.O=C(O)CCC(=O)O` [Compound I, 3-[2-(dimethylamino)ethyl]-N-methyl-1H-indole-5-methanesulfonamide butane-1,4-dioate (1:1)], the bioavailability result is listed as “low bioavailability”.
